In patent US20150031572A1, “MEANS AND METHODS FOR ASSESSING NEURONAL TOXICITY” (priority 2012, published 2015):
Counter-ions that a name gives are not always drawn. Marks after values point to notes of the source that are not given here. Values belong to the compound of their own block, whether it stands above or below them.

Experiment: Plasma metabolite profiling (GC-MS, LC-MS, SPE-LC-MS) of rats dosed once daily over 28 days; treatment ratios versus untreated control
Assay type: in vivo, rat
Conditions: for 5-Oxoproline, plasma metabolite ratio versus control / Alanine, plasma metabolite ratio versus control / Arginine (second line of the table), plasma metabolite ratio versus control / Arginine, plasma metabolite ratio versus control / Citrulline, plasma metabolite ratio versus control / Glutamine, plasma metabolite ratio versus control / Proline, plasma metabolite ratio versus control / Tyrosine, plasma metabolite ratio versus control: high dose; for Creatinine, ratio versus control: Table 12a; for Adrenaline (Epi-nephrine), ratio versus control / Glutamate, ratio versus control / Serotonin (5-HT), ratio versus control: Table 7b
Procedure: A group of each 5 male and female rats was dosed once daily with the indicated compounds (see Table 10, below for compounds, applied doses and administration details) over 28 days.
Each dose group in the studies consisted of five rats per sex. Additional groups of each 5 male and female animals served as controls. Before starting the treatment period, animals, which were 62-64 days old when supplied, were acclimatized to the housing and environmental conditions for 7 days. All animals of the animal population were kept under the same constant temperature (20-24±3° C.) and the same constant humidity (30-70%). The animals of the animal population were fed ad libitum. The food to be used was essentially free of chemical or microbial contaminants. Drinking water was also offered ad libitum. Accordingly, the water was free of chemical and microbial contaminants as laid down in the European Drinking Water Directive 98/83/EG. The illumination period was 12 hours light followed by 12 hours darkness (12 hours light, from 6:00 to 18:00, and 12 hours darkness, from 18:00 to 6:00). […] The test substances (compounds) in the Tables 1 to 9 below were dosed and administered as described in the Table 10 above.
In the morning of day 7, 14, and 28, blood was taken from the retro-orbital venous plexus from fasted anaesthetized animals. From each animal, 1 ml of blood was collected with EDTA as anticoagulant. The samples were centrifuged for generation of plasma. All plasma samples were covered with a N2 atmosphere and then stored at −80° C. until analysis.
For mass spectrometry-based metabolite profiling analyses plasma samples were extracted and a polar and a non-polar (lipid) fraction was obtained. For GC-MS analysis, the non-polar fraction was treated with methanol under acidic conditions to yield the fatty acid methyl esters. Both fractions were further derivatised with O-methyl-hydroxyamine hydrochloride and pyridine to convert Oxogroups to O-methyloximes and subsequently with a silylating agent before analysis. In LC-MS analysis, both fractions were reconstituted in appropriate solvent mixtures. HPLC was performed by gradient elution on reversed phase separation columns. Mass spectrometric detection which allows target and high sensitivity MRM (Multiple Reaction Monitoring) profiling in parallel to a full screen analysis was applied as described in WO2003073464.
Steroids and their metabolites were measured by online SPE-LC-MS (Solid phase extraction-LC-MS).
Following comprehensive analytical validation steps, the data for each analyte were normalized against data from pool samples. These samples were run in parallel through the whole process to account for process variability. The significance of treatment group values specific for sex, treatment duration and metabolite was determined by comparing means of the treated groups to the means of the respective untreated control groups using WELCH-test and quantified with treatment ratios versus control and p-values.
The identification of the most important biomarkers per toxicity pattern was done by a ranking of the analytes in the tables below. Therefore the metabolic changes in reference treatments of a given pattern (shown in the table) were compared with changes of the same metabolite in other unrelated treatments. […] The maximum absolute value of the respective TVALUE was taken to indicate the most important metabolite for the pattern.

[1] = plasma, female rats, day 7, high dose
[2] = plasma, female rats, day 14, high dose, Table 7a
[3] = plasma, female rats, day 14, high dose
[4] = plasma, female rats, day 28, high dose, Table 7a
[5] = plasma, female rats, day 28, high dose
[6] = plasma, female rats, day 28, high dose, Table 6a
[7] = plasma, female rats, day 28, high dose, Table 6b
[8] = plasma, female rats, day 28, high dose, Table 8c
[9] = plasma, female rats, day 28, high dose, Table 8d
[10] = plasma, female rats, day 7, high dose, Table 9a
[11] = plasma, female rats, day 7, high dose, Table 9b
[12] = plasma, female rats, day 14, high dose, Table 9a
[13] = plasma, female rats, day 14, high dose, Table 9b
[14] = plasma, female rats, day 28, high dose, Table 9a
[15] = plasma, female rats, day 28, high dose, Table 9b
[16] = plasma, male rats, day 7, high dose, Table 9c
[17] = plasma, male rats, day 7, high dose, Table 9d
[18] = plasma, male rats, day 14, high dose, Table 9c
[19] = plasma, male rats, day 14, high dose, Table 9d
[20] = plasma, male rats, day 28, high dose, Table 9c
[21] = plasma, male rats, day 28, high dose, Table 9d

Compound: Lead acetate trihydrate
- 5-Oxoproline, plasma metabolite ratio versus control (male rats, day 7 (m7)): 0.88
- Alanine, plasma metabolite ratio versus control (male rats, day 7 (m7)): 0.68
- Arginine (second line of the table), plasma metabolite ratio versus control (male rats, day 7 (m7)): 0.91
- Arginine, plasma metabolite ratio versus control (male rats, day 7 (m7)): 0.86
- Citrulline, plasma metabolite ratio versus control (male rats, day 7 (m7)): 0.94
- Glutamine, plasma metabolite ratio versus control (male rats, day 7 (m7)): 0.83
- Proline, plasma metabolite ratio versus control (male rats, day 7 (m7)): 0.88
- Tyrosine, plasma metabolite ratio versus control (male rats, day 7 (m7)): 0.92
- 5-Oxoproline, plasma metabolite ratio versus control (male rats, day 14 (m14)): 0.92
- Alanine, plasma metabolite ratio versus control (male rats, day 14 (m14)): 0.75
- Arginine (second line of the table), plasma metabolite ratio versus control (male rats, day 14 (m14)): 0.90
- Arginine, plasma metabolite ratio versus control (male rats, day 14 (m14)): 0.87
- Citrulline, plasma metabolite ratio versus control (male rats, day 14 (m14)): 0.90
- Glutamine, plasma metabolite ratio versus control (male rats, day 14 (m14)): 0.83
- Proline, plasma metabolite ratio versus control (male rats, day 14 (m14)): 0.84
- Tyrosine, plasma metabolite ratio versus control (male rats, day 14 (m14)): 0.88
- 5-Oxoproline, plasma metabolite ratio versus control (male rats, day 28 (m28)): 0.86
- Alanine, plasma metabolite ratio versus control (male rats, day 28 (m28)): 0.75
- Arginine (second line of the table), plasma metabolite ratio versus control (male rats, day 28 (m28)): 0.89
- Arginine, plasma metabolite ratio versus control (male rats, day 28 (m28)): 0.90
- Citrulline, plasma metabolite ratio versus control (male rats, day 28 (m28)): 0.91
- Glutamine, plasma metabolite ratio versus control (male rats, day 28 (m28)): 0.87
- Proline, plasma metabolite ratio versus control (male rats, day 28 (m28)): 0.88
- Tyrosine, plasma metabolite ratio versus control (male rats, day 28 (m28)): 0.90
- Creatinine, ratio versus control (plasma, male rats, day 7, high dose): 1.16
- Creatinine, ratio versus control (plasma, male rats, day 14, high dose): 1.32
- Creatinine, ratio versus control (plasma, male rats, day 28, high dose): 1.66

- alpha-Tocopherol, ratio versus control (plasma, female rats, day 7, high dose, Table 7a): 1.08
- Adrenaline (Epi-nephrine), ratio versus control [1]: 0.19*
- Glutamate, ratio versus control [1]: 0.7*
- Serotonin (5-HT), ratio versus control [1]: 0.09*
- 4-Hydroxysphinganine (t18:0, Phytosphingosine), total, ratio versus control [2]: 1.9*
- Threonine, ratio versus control [2]: 1.65*
- alpha-Tocopherol, ratio versus control [2]: 1.31*
- Adrenaline (Epi-nephrine), ratio versus control [3]: 0.36*
- Glutamate, ratio versus control [3]: 0.68*
- Serotonin (5-HT), ratio versus control [3]: 0.07*
- 4-Hydroxysphinganine (t18:0, Phytosphingosine), total, ratio versus control [4]: 2.11*
- Threonine, ratio versus control [4]: 1.4*
- Adrenaline (Epi-nephrine), ratio versus control [5]: 0.89
- Glutamate, ratio versus control [5]: 0.85
- Serotonin (5-HT), ratio versus control [5]: 0.04*
- 4-Hydroxysphinganine (t18:0, Phytosphingosine), total, ratio versus control (rat, in vivo): 1.99*
- Threonine, ratio versus control (rat, in vivo): 1.41*
- alpha-Tocopherol, ratio versus control (rat, in vivo): 1.32*
Compound: Fc1ccc([C@@H]2CCNC[C@H]2COc2ccc3c(c2)OCO3)cc1 [Paroxetine hydrochloride]

Compound: CN1CCc2cccc3c2[C@H]1Cc1ccc(O)c(O)c1-3 [Apomorphine]
- Isoleucine, ratio versus control [6]: 1.25*
- 14-Methylhexadecanoic acid, ratio versus control [7]: 0.83*
- 16-Methylheptadecanoic acid, ratio versus control [7]: 0.66*
- 17-Methyloctadecanoic acid, ratio versus control [7]: 0.73*
- Ceramide (d18:1,C24:1), ratio versus control [7]: 0.61*
- Choline plasmalogen No 03, ratio versus control [7]: 0.89*
- Isopalmitic acid (C16:0), ratio versus control [7]: 0.93
- Lactate, ratio versus control [7]: 0.9
- Myristic acid (C14:0), ratio versus control [7]: 0.9*
- Phosphatidylcholine (C16:0, C20:4), ratio versus control [7]: 0.88*
- Phosphatidylcholine No 04, ratio versus control [7]: 0.88*
- Pyruvate, ratio versus control [7]: 0.33*
- 3-Hydroxybutyrate, ratio versus control [8]: 1.41 *
- Isoleucine, ratio versus control [8]: 1.25 *
- TAG (C16:0,C18:2), ratio versus control [8]: 2.31 *
- 16-Methylheptadecanoic acid, ratio versus control [9]: 0.66 *
- 17-Methyloctadecanoic acid, ratio versus control [9]: 0.73 *
- Ceramide (d18:1,C24:1), ratio versus control [9]: 0.61 *
- Phosphatidylcholine (C16:0, C20:4), ratio versus control [9]: 0.88 *
- Phosphatidylcholine (C18:0, C20:3), ratio versus control [9]: 0.98 *
- Pyruvate, ratio versus control [9]: 0.33 *

Compound: Cn1ncc(C(=O)c2ccc(S(C)(=O)=O)c(C3=NOCC3)c2Cl)c1O [[3-(4,5-dihydro-isoxazol-3-yl)-4-methylsulfonyl-2-chlorphenyl](5-hydroxy-1-methyl-1H-pyrazol-4-yl)methanone]
- 4-Hydroxyphenylpyruvate, ratio versus control [10]: 26.68*
- Glycine, ratio versus control [10]: 1.37*
- Phosphatidylcholine (C18:0,C18:2), ratio versus control [10]: 1.12*
- Serine, ratio versus control [10]: 1.16*
- TAG (C16:0,C18:2), ratio versus control [10]: 2.56*
- TAG (C18:1,C18:2), ratio versus control [10]: 2.72*
- TAG (C18:2,C18:2), ratio versus control [10]: 3.93*
- Threonine, ratio versus control [10]: 1.16
- Tyrosine, ratio versus control [10]: 16.36*
- gamma-Linolenic acid (C18:cis[6,9,12]3), ratio versus control [10]: 1.44*
- 5-Oxoproline, ratio versus control [11]: 0.56*
- Glutamine, ratio versus control [11]: 0.49*
- 4-Hydroxyphenylpyruvate, ratio versus control [12]: 25.92*
- Glycine, ratio versus control [12]: 1.24*
- Phosphatidylcholine (C18:0,C18:2), ratio versus control [12]: 1.12*
- Serine, ratio versus control [12]: 1.18*
- TAG (C16:0,C18:2), ratio versus control [12]: 2.2*
- TAG (C18:1,C18:2), ratio versus control [12]: 2.89*
- TAG (C18:2,C18:2), ratio versus control [12]: 2.47*
- Threonine, ratio versus control [12]: 1.33*
- Tyrosine, ratio versus control [12]: 16.29*
- gamma-Linolenic acid (C18:cis[6,9,12]3), ratio versus control [12]: 1.55*
- 5-Oxoproline, ratio versus control [13]: 0.68*
- Glutamine, ratio versus control [13]: 0.53*
- 4-Hydroxyphenylpyruvate, ratio versus control [14]: 24.95*
- Glycine, ratio versus control [14]: 1.25*
- Phosphatidylcholine (C18:0,C18:2), ratio versus control [14]: 1.11*
- Serine, ratio versus control [14]: 1.14*
- TAG (C16:0,C18:2), ratio versus control [14]: 2.44*
- TAG (C18:1,C18:2), ratio versus control [14]: 3.2*
- TAG (C18:2,C18:2), ratio versus control [14]: 2.77*
- Threonine, ratio versus control [14]: 1.24*
- Tyrosine, ratio versus control [14]: 12.88*
- gamma-Linolenic acid (C18:cis[6,9,12]3), ratio versus control [14]: 1.77*
- 5-Oxoproline, ratio versus control [15]: 0.58*
- Glutamine, ratio versus control [15]: 0.52*
- 4-Hydroxyphenylpyruvate, ratio versus control [16]: 31.22*
- Lysine, ratio versus control [16]: 1.23*
- Threonine, ratio versus control [16]: 1.16*
- Tyrosine, ratio versus control [16]: 21.56*
- 5-Oxoproline, ratio versus control [17]: 0.5*
- Citrulline, ratio versus control [17]: 0.73*
- Glutamine, ratio versus control [17]: 0.41*
- Phenylalanine, ratio versus control [17]: 0.79*
- 4-Hydroxyphenylpyruvate, ratio versus control [18]: 34.78*
- Lysine, ratio versus control [18]: 1.32*
- Threonine, ratio versus control [18]: 1.2*
- Tyrosine, ratio versus control [18]: 18.22*
- 5-Oxoproline, ratio versus control [19]: 0.58*
- Citrulline, ratio versus control [19]: 0.72*
- Glutamine, ratio versus control [19]: 0.43*
- Phenylalanine, ratio versus control [19]: 0.9*
- 4-Hydroxyphenylpyruvate, ratio versus control [20]: 25.05*
- Lysine, ratio versus control [20]: 1.29*
- Threonine, ratio versus control [20]: 1.5*
- Tyrosine, ratio versus control [20]: 14.42*
- 5-Oxoproline, ratio versus control [21]: 0.54*
- Citrulline, ratio versus control [21]: 0.8*
- Glutamine, ratio versus control [21]: 0.41*
- Phenylalanine, ratio versus control [21]: 0.82

Compound: CC(C)C[C@H]1C(=O)N2CCC[C@H]2[C@]2(O)O[C@](NC(=O)[C@@H]3C=C4c5cccc6[nH]c(Br)c(c56)C[C@H]4N(C)C3)(C(C)C)C(=O)N12 [Bromocriptine Mesylate]
- Isoleucine, ratio versus control [6]: 1.14*
- 14-Methylhexadecanoic acid, ratio versus control [7]: 0.85*
- 16-Methylheptadecanoic acid, ratio versus control [7]: 0.51*
- 17-Methyloctadecanoic acid, ratio versus control [7]: 0.67*
- Ceramide (d18:1,C24:1), ratio versus control [7]: 0.6*
- Choline plasmalogen No 03, ratio versus control [7]: 0.62*
- Isopalmitic acid (C16:0), ratio versus control [7]: 0.62*
- Lactate, ratio versus control [7]: 0.47*
- Myristic acid (C14:0), ratio versus control [7]: 0.84
- Phosphatidylcholine (C16:0, C20:4), ratio versus control [7]: 0.94*
- Phosphatidylcholine No 04, ratio versus control [7]: 0.47*
- Pyruvate, ratio versus control [7]: 0.71*
- 3-Hydroxybutyrate, ratio versus control [8]: 1.13^
- Isoleucine, ratio versus control [8]: 1.14 *
- TAG (C16:0,C18:2), ratio versus control [8]: 1.2 *
- 16-Methylheptadecanoic acid, ratio versus control [9]: 0.51 *
- 17-Methyloctadecanoic acid, ratio versus control [9]: 0.67 *
- Ceramide (d18:1,C24:1), ratio versus control [9]: 0.6 *
- Phosphatidylcholine (C16:0, C20:4), ratio versus control [9]: 0.94 *
- Phosphatidylcholine (C18:0, C20:3), ratio versus control [9]: 0.71 *
- Pyruvate, ratio versus control [9]: 0.71 *
